From ChEMBL document CHEMBL2163299, “Cytotoxic effects of combination of oxidosqualene cyclase inhibitors with atorvastatin in human cancer cells” (J Med Chem, 2012)
The source made the active and inactive calls. The calls are words filed in the database; no cut-off is given here.

Assays:
KB = assay: Cytotoxicity against human KB cells after 72 hrs by MTT assay; assay type: functional, cell-based
LN-18 [1] = assay: Induction of [14C]acetate incorporation in human LN18 cells at 2 uM after 24 hrs by Beta-counting in presence of 2.5 to 10 uM atorvastatin; assay type: functional, cell-based
LN-229 [2] = assay: Cytotoxicity against human LN229 cells at 2 uM after 72 hrs by MTT assay in presence of atorvastatin; assay type: functional, cell-based
in vitro = details: pampa, pH 6.5
Description: Apparent permeability of compound at pH 6.5 by PAMPA

[3] = Cytotoxicity against human Me300 cells after 72 hrs by MTT assay; assay type: functional, cell-based; details: Me300, 72 h
physchem = details: 1-octanol/TAPSO buffer, pH 7.4
Description: 1-Octanol-TAPSO buffer distribution coefficient, log D of the compound at pH 7.4 by shake-flask method

LN-18 [4] = assay: Cytotoxicity against human LN18 cells at 2 to 4 uM after 72 hrs by MTT assay in presence of atorvastatin; assay type: functional, cell-based
OVCAR = assay: Cytotoxicity against human OVCAR cells after 72 hrs by MTT assay; assay type: functional, cell-based
A549 = assay: Cytotoxicity against human A549 cells after 72 hrs by MTT assay; assay type: functional, cell-based; details: A549, 72 h
LN-18 [5] = assay: Inhibition of DNA synthesis in human LN18 cells assessed as inhibition of tritiated thymidine incorporation at 1 to 3 uM after 24 hrs by beta counting; assay type: functional, cell-based
LN-229 [6] = assay: Inhibition of DNA synthesis in human LN229 cells assessed as inhibition of tritiated thymidine incorporation at 1 to 3 uM after 24 hrs by beta counting; assay type: functional, cell-based
Caco-2 = assay: cells; details: Homo sapiens, Caco-2, 72 h
Description: Cytotoxicity against human Caco2 cells after 72 hrs by MTT assay

HeLa = assay: cells; details: Homo sapiens, 72 h
Description: Cytotoxicity against human HeLa cells after 72 hrs by MTT assay

[7] = Chemical stability of compound at pH 4.0 after 24 hrs; assay type: physicochemical; details: buffer, pH 4, 24 h
[8] = Chemical stability of compound at pH 7.4 after 24 hrs; assay type: physicochemical; details: buffer, pH 7.4, 24 h
MCF7 = assay: cells; details: Homo sapiens, MCF7, 72 h
Description: Cytotoxicity against human MCF7 cells after 72 hrs by MTT assay

cells = details: Homo sapiens, HCEC, 72 h
Description: Cytotoxicity against human HCEC cells assessed as reduction in cell survival after 72 hrs by MTT assay

LN-229 [9] = assay: Induction of [14C]acetate incorporation in human LN229 cells at 2 uM after 24 hrs by Beta-counting; assay type: functional, cell-based
[10] = (§1) Cytotoxicity against human LN18 cells assessed as reduction in cell survival after 72 hrs by MTT assay; assay type: functional, cell-based; details: LN-18, 72 h
LN-18 [11] = assay: as §1; assay type: functional, cell-based
[12] = Cytotoxicity against human HCEC cells assessed as cell death at 4 to 10 uM after 72 hrs by MTT assay in presence of atorvastatin; assay type: cell-based
[13] = pampa, pH 6.5
Description: Permeability of compound at pH 6.5 assessed as compound binding to lipid membrane by PAMPA

LNCaP = assay: Cytotoxicity against human LNCAP cells after 72 hrs by MTT assay; assay type: functional, cell-based
LN-18 [14] = assay: Induction of [14C]acetate incorporation in human LN18 cells at 2 uM after 24 hrs by Beta-counting; assay type: functional, cell-based
[15] = Cytotoxicity against human LNZ308 cells after 72 hrs by MTT assay; assay type: functional, cell-based; details: LNZ308, 72 h
LN-229 [16] = assay: (§2) Cytotoxicity against human LN229 cells assessed as reduction in cell survival after 72 hrs by MTT assay; assay type: functional, cell-based
[17] = as §2; assay type: functional, cell-based; details: LN-229, 72 h
LN-229 [18] = assay: Induction of [14C]acetate incorporation in human LN229 cells at 2 uM after 24 hrs by Beta-counting in presence of 2.5 to 10 uM atorvastatin; assay type: functional, cell-based

With `C=CCN(C)CCCCCCOc1ccc(C(=O)c2ccc(Br)cc2)c(F)c1.O=C(O)/C=C/C(=O)O` the IC50 (KB) was 2.88 µM, the Activity (LN-18 [1]) was “inactive” and the Activity (LN-229 [2]) was “Active”. For the same molecule, the Papp (in vitro) was 0.12 ×10⁻⁶ cm/s, the IC50 [3] was over 30 µM and the logD (physchem) was 3.92. For the same molecule, the Activity (LN-18 [4]) was “Active”, the IC50 (OVCAR) was over 30 µM and the IC50 (A549) was 11.3 µM. The inhibition (LN-18 [5]) was “Active”, the inhibition (LN-229 [6]) was “Active” and the IC50 (Caco-2) was 2.99 µM. For the same molecule, the IC50 (HeLa) was 2.89 µM, the Stability [7] was “Stable” and the Stability [8] was “Stable”. The IC50 (MCF7) was 6.77 µM, the IC50 (cells) was 3.8 µM and the Activity (LN-229 [9]) was “Active”. For the same molecule, the IC50 [10] was 6.1 µM, the Activity (LN-18 [11]) was “Dose-dependent effect” and the Activity [12] was “Toxic”. The permeability [13] was 20%, the IC50 (LNCaP) was over 30 µM and the Activity (LN-18 [14]) was “Active”. For the same molecule, the IC50 [15] was 5.26 µM, the Activity (LN-229 [16]) was “Dose-dependent effect” and the IC50 [17] was 8.8 µM. For the same molecule, the Activity (LN-229 [18]) was “inactive”.
